# Laboratory results from US20120189706A1, “Macrocystis Pyrifera Derived Health and Wellness Products and Methods of Using the Same” (Knocean Sciences, Inc., priority 2009, published 2012).
# How the values were obtained:
# HIV-1 strain IIIB = experiment: HIV-1 Cytoprotection assay; type: cell-based
# HSV-1 strain HF = experiment: HSV Cytoprotection assay; type: cell-based
# Method: The HSV Cytoprotection assay uses Vero cells and HSV-1 strain HF or HSV-2 strain MS. […] Each assay includes acyclovir (ACV) as a positive control. […] The standard viruses used for this assay are HSV-1 strain HF and HSV-2 strain MS (other viruses available upon request). […] For each assay, a pre-titered aliquot of virus is removed from the freezer (−80° C.) and allowed to thaw slowly to room temperature in a biological safety cabinet. The virus is resuspended and diluted into tissue culture medium such that the amount of virus added to each well is the amount determined to give between 85 to 95% cell killing at 5 days post-infection.
# [1] = Compound cytotoxicity in HSV Cytoprotection assay (MTS); type: cell-based; settings: African green monkey (Cercopithecus aethiops), Vero cells (uninfected, cells plus compound only), read-out: TC50
# Rhinovirus strain 1B = experiment: Rhinovirus Cytoprotection assay in MRC-5 cells; type: cell-based
# Method: (§1) The Rhinovirus Cytoprotection assay uses MRC-5 cells and Rhinovirus strains 1B, 14, or 26. […] Each assay includes enviroxime (ENV) as a positive control. […] The viruses used for this assay are Rhinovirus strains 1B, 14, or 26. […] For each assay, a pre-titered aliquot of virus is removed from the freezer (−80° C.) and allowed to thaw slowly to room temperature in a biological safety cabinet. The virus is resuspended and diluted into tissue culture medium such that the amount of virus added to each well is the amount determined to give between 85 to 95% cell killing at 6-7 days post-infection.
# MRC-5 cells = experiment: Compound cytotoxicity in Rhinovirus Cytoprotection assay (MTS); type: cell-based, Human; settings: 7 days
# Source text: The Rhinovirus Cytoprotection assay uses MRC-5 cells and Rhinovirus strains 1B, 14, or 26. […] Each assay includes enviroxime (ENV) as a positive control.
# RSV strain Long = experiment: Respiratory Syncytial Virus (RSV) Cytoprotection assay; type: cell-based; settings: human respiratory syncytial virus, 168 h, A549 cells, 7 days
# Method: as §1, with “Respiratory Syncytial Virus (RSV)” for “Rhinovirus”, “A549” for “MRC-5”, “RSV strain Long.” for “Rhinovirus strains 1B, 14, or 26.”, “ribavirin (RBV)” for “enviroxime (ENV)”, “virus” for “viruses”, “is RSV strain Long.” for “are Rhinovirus strains 1B, 14, or 26.”
# Vero E6 cells = experiment: Compound cytotoxicity in Dengue Virus Cytoprotection assay (MTS); settings: 7 days
# [2] = system: Influenza A strain A/Victoria/3/75 (H3N2); experiment: Influenza A Cytoprotection assay; type: cell-based; settings: Influenza A virus, H3N2, 168 h, MDCK cells, 7 days
# Coxsackie A strain A7 = experiment: Coxsackie A virus Cytoprotection assay; type: cell-based; settings: MRC5, 168 h, MRC-5 cells, 7 days
# Method: The Coxsackie A virus Cytoprotection assay uses MRC-5 cells and Coxsackie A strains A7 or A21. […] Each assay includes ribavirin (RBV) as a positive control. […] The viruses used for this assay are Coxsackie A strains A7 or A21. […] For each assay, a pre-titered aliquot of virus is removed from the freezer (−80° C.) and allowed to thaw slowly to room temperature in a biological safety cabinet. The virus is resuspended and diluted into tissue culture medium such that the amount of virus added to each well is the amount determined to give between 85 to 95% cell killing at 7 days post-infection.
compound,measurement,setting,value
Cc1cn([C@H]2C[C@H](N=[N+]=[N-])[C@@H](CO)O2)c(=O)[nH]c1=O [AZT],IC50,"HIV-1 strain IIIB; HIV-1 Strain IIIB, CEM-SS cells, 6 days",0.172 µM
same,Antiviral Index,"HIV-1 strain IIIB; TC50/IC50, HIV-1",>5.83
same,CC50,CEM-SS cells,> 1 µM
"Nc1nc2c(ncn2COCCO)c(=O)[nH]1 [Acyclovir, acyclovir]",IC50,"HSV-1 strain HF; Human alphaherpesvirus 1, 120 h, HSV-1 Strain HF, Vero cells, 5 days",6.92 µM
same,Antiviral Index,"HSV-1 strain HF; TC50/IC50, HSV-1",>14.5
same,CC50 at 5 days,[1],> 100 µM
"CC(C)S(=O)(=O)n1c(N)nc2ccc(/C(=N/O)c3ccccc3)cc21 [Enviroxime, enviroxime]",IC50,"Rhinovirus strain 1B; Enterovirus, MRC5, 168 h, Rhinovirus Strain 1B, MRC-5 cells, 7 days",0.485 µg/mL
same,Antiviral Index,"Rhinovirus strain 1B; TC50/IC50, Rhinovirus",>20.6
same,TC50,MRC-5 cells,>10 µg/mL
"NC(=O)c1ncn([C@@H]2O[C@H](CO)[C@@H](O)[C@H]2O)n1 [Ribavirin, ribavirin]",IC50,RSV strain Long,12.2 µg/mL
same,TC50,Vero E6 cells,>200 µg/mL
same,IC50,[2],4.45 µg/mL
same,IC50,Coxsackie A strain A7,7.04 µg/mL
